How the values were obtained:
Type in all cases: in vivo
[1] = tested on: Glyphosate susceptible marestail (ERICA); experiment: Greenhouse test, post-emergence control of glyphosate susceptible marestail; details: use rate 420 g/ha
Excerpt: (§1) The phenyluracils I and/or the other active ingredients according to the present invention were formulated in a suitable way, either separately or in mixture, e.g. as emulsifiable concentrates (EC), soluble concentrates (SL), suspo-emulsions (SE), suspension concentrates (SC) or water-dispersible granules (WG). The formulation(s) were suspended or emulsified in water as a distribution medium immediately prior to spraying. Afterwards, the aqueous mixture was evenly sprayed on the test plots or plant pots by means of finely distributing nozzles.
(§2) For the greenhouse tests, plants were grown in pots to a height between 3 and 6 cm, and then treated (post-emergence). During the test period of 29 days, the plants were tended.
(§3) The evaluation of the damage caused by the phenyluracils I and/or the other active ingredients according to the present invention was carried out using a scale from 0 to 100%, compared to the untreated control plots. Here, 0 means no damage and 100 means complete destruction of the plants of a respective weed or crop species.
(§4) In this example, glyphosate (isopropylammonium salt) was formulated as a 353 g/l SL and Phenyluracil I.7 as a 120 g/l EC. Prior to application, the formulated active ingredients were tank-mixed with an aqueous 187 l/ha spray solution which contained, in addition, 15 g/l of ammonium sulphate and 2.5 g/l of non-ionic surfactant.

[2] = tested on: Glyphosate resistant marestail (ERICA); experiment: Greenhouse test, post-emergence control of glyphosate resistant marestail; details: use rate 420 g/ha
Excerpt: as §1, §2, §3, §4

[3] = tested on: Glyphosate resistant cotton; experiment: Field test, control of glyphosate resistant cotton in post-directed treatment; details: glyphosate 560 g/ha
Experimental: (§5) In the examples below, the value E which is to be expected if the activity of the individual compounds is just additive was calculated using the method of S. R. Colby (1967) “Calculating synergistic and antagonistic responses of herbicide combinations”, Weeds 15, p. 22 ff.
(§6) where X=effect in percent using active compound A at an application rate a; Y=effect in percent using active compound B at an application rate b; E=expected effect (in %) of A+B at application rates a+b.
(§7) If the experimentally determined value is higher than the value E calculated according to Colby's equation, a synergistic effect is present.
as §1
(§8) As regards the field tests, the test plots were of uniform size (typically between 14 and 37 square meters, each) and the distribution of treated and untreated plots was organized according to a randomised bloc design. […]

[4] = tested on: glyphosate resistant corn; experiment: Field test, control of volunteer glyphosate resistant corn by pre-emergence application; details: Imazethapyr 70 g/ha, pre-emergence to soybean crop
Experimental: as §5, §6, §7, §1, §8

Structure (SMILES) | Glyphosate susceptible marestail (ERICA) at 29 DAT (% herbicide control) [1] [%] | Glyphosate resistant marestail (ERICA) at 29 DAT (% herbicide control) [2] [%] | Glyphosate resistant cotton at 3 DAT (% control), Found [3] [%] | Control of glyphosate resistant corn at 29 DAT (% control), Found [4] [%]
O=C(O)CNCP(=O)(O)O [Glyphosate, glyphosate] | 98 | 0 | 0 | 
CCc1cnc(C2=NC(C)(C(C)C)C(=O)N2)c(C(=O)O)c1 (stereo not shown) [Imazethapyr, imazethapyr] |  |  |  | 23

Reference: US20080227637A1, “A Method of Controlling Weeds” (BASF Aktiengesellschaft, priority 2005, published 2008)
